Source: PubChem BioAssay (NCI)
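Grown in 96-well plates, cells were treated for 48 hours with each compound at five concentrations. Insufficient inhibition: endpoint recorded as highest concentration tested. GI50: concentration for 50% inhibition of growth. Definition used: TGI = concentration required for complete inhibition of growth.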

Key:
Test in all cases: inhibition of tumour cell growth, NCI panel, 48 h
CCRF-CEM leukemia = test system: CCRF-CEM leukemia
HCT-116 colon = test system: HCT-116 colon
MDA-MB-231 breast = test system: MDA-MB-231 breast
NCI-H23 lung = test system: NCI-H23 lung
NCI-H460 lung = test system: NCI-H460 lung
RXF 393 renal = test system: RXF 393 renal
SF-268 CNS = test system: SF-268 CNS
SF-295 CNS = test system: SF-295 CNS
SNB-75 CNS = test system: SNB-75 CNS
SR leukemia = test system: SR leukemia

SMILES: Cc1ccccc1N=Nc1ccc(NC(=O)c2ccnn2C)c(C)c1
- GI50 (CCRF-CEM leukemia): 43.3 µM
- TGI (CCRF-CEM leukemia): > 100 µM
- GI50 (HCT-116 colon): 5.99 µM
- TGI (HCT-116 colon): > 100 µM
- GI50 (MDA-MB-231 breast): 20.2 µM
- TGI (MDA-MB-231 breast): 78.2 µM
- GI50 (NCI-H23 lung): 18.7 µM
- TGI (NCI-H23 lung): > 100 µM
- GI50 (NCI-H460 lung): 26.5 µM
- TGI (NCI-H460 lung): > 100 µM
- GI50 (RXF 393 renal): 18.5 µM
- TGI (RXF 393 renal): 47.2 µM
- GI50 (SF-268 CNS): 31.7 µM
- TGI (SF-268 CNS): > 100 µM
- GI50 (SF-295 CNS): 23.9 µM
- TGI (SF-295 CNS): > 100 µM
- GI50 (SNB-75 CNS): 3.66 µM
- TGI (SNB-75 CNS): 33.5 µM

SMILES: N#Cc1c(NN)nc(NN)c(C#N)c1-c1ccccc1
- TGI (CCRF-CEM leukemia): > 100 µM
- TGI (HCT-116 colon): > 100 µM
- TGI (NCI-H23 lung): > 100 µM
- TGI (NCI-H460 lung): > 100 µM
- TGI (RXF 393 renal): > 100 µM
- TGI (SF-268 CNS): > 100 µM
- TGI (SF-295 CNS): > 100 µM
- TGI (SNB-75 CNS): > 100 µM

SMILES: Cn1c(=O)nc2n(-c3cccc(Br)c3)c3ccccc3nc-2c1=O
- TGI (CCRF-CEM leukemia): 26.9 µM
- TGI (HCT-116 colon): 18.1 µM
- TGI (NCI-H23 lung): 4.91 µM
- TGI (NCI-H460 lung): 12.2 µM
- TGI (RXF 393 renal): 24 µM
- TGI (SF-268 CNS): 23.4 µM
- TGI (SF-295 CNS): 18.6 µM
- TGI (SNB-75 CNS): 22.2 µM

SMILES: CCCCCCCCCCCCCC(=O)CC(=O)c1c(O)cccc1O
- TGI (CCRF-CEM leukemia): 41.6 µM
- TGI (HCT-116 colon): > 100 µM
- TGI (NCI-H23 lung): 84.2 µM
- TGI (NCI-H460 lung): 91.9 µM
- TGI (RXF 393 renal): > 100 µM
- TGI (SF-268 CNS): > 100 µM
- TGI (SF-295 CNS): > 100 µM
- TGI (SNB-75 CNS): > 100 µM

SMILES: O=c1cc2ccccc2nn1Cc1cccc(Cl)c1
- TGI (CCRF-CEM leukemia): > 100 µM
- TGI (HCT-116 colon): > 100 µM
- TGI (NCI-H23 lung): > 100 µM
- TGI (NCI-H460 lung): > 100 µM
- TGI (SF-268 CNS): > 100 µM
- TGI (SF-295 CNS): > 100 µM
- TGI (SNB-75 CNS): > 100 µM

SMILES: NC(N)=N/N=C\c1cccc(OCc2ccccc2)c1
- GI50 (CCRF-CEM leukemia): 9.53 µM
- TGI (CCRF-CEM leukemia): 33.7 µM
- GI50 (HCT-116 colon): 1.84 µM
- TGI (HCT-116 colon): 3.96 µM
- GI50 (MDA-MB-231 breast): 2.37 µM
- TGI (MDA-MB-231 breast): 6.11 µM
- GI50 (NCI-H23 lung): 11.7 µM
- TGI (NCI-H23 lung): 27.6 µM
- GI50 (NCI-H460 lung): 2.55 µM
- TGI (NCI-H460 lung): 7.79 µM
- GI50 (RXF 393 renal): 2.54 µM
- TGI (RXF 393 renal): 6.64 µM
- GI50 (SF-268 CNS): 10.9 µM
- TGI (SF-268 CNS): 25 µM
- GI50 (SF-295 CNS): 4.64 µM
- TGI (SF-295 CNS): 20.4 µM
- GI50 (SNB-75 CNS): 7.03 µM
- TGI (SNB-75 CNS): 23.4 µM

SMILES: CC(=O)[CH-]C(=O)c1ccccc1.CC(=O)[CH-]C(=O)c1ccccc1.CC1(C)C2CCC1(C)C([O-])C2.CC1(C)C2CCC1(C)C([O-])C2.[Ti+4]
- GI50 (CCRF-CEM leukemia): 25.1 µM
- TGI (CCRF-CEM leukemia): > 100 µM
- GI50 (HCT-116 colon): 34.9 µM
- TGI (HCT-116 colon): > 100 µM
- GI50 (NCI-H460 lung): 47.7 µM
- TGI (NCI-H460 lung): > 100 µM
- GI50 (RXF 393 renal): 17.6 µM
- TGI (RXF 393 renal): 36.1 µM
- GI50 (SF-268 CNS): 34.8 µM
- TGI (SF-268 CNS): > 100 µM
- GI50 (SF-295 CNS): 38.9 µM
- TGI (SF-295 CNS): > 100 µM

SMILES: Cc1ccccc1C(=O)c1ccccc1O
- TGI (CCRF-CEM leukemia): > 100 µM
- TGI (HCT-116 colon): > 100 µM
- TGI (NCI-H23 lung): > 100 µM
- TGI (NCI-H460 lung): > 100 µM
- TGI (RXF 393 renal): > 100 µM
- TGI (SF-268 CNS): > 100 µM
- TGI (SF-295 CNS): > 100 µM
- TGI (SNB-75 CNS): > 100 µM

SMILES: CN(C)c1ccc([O][Bi]([Cl])[Cl])cc1
- GI50 (HCT-116 colon): > 100 µM
- TGI (HCT-116 colon): > 100 µM
- GI50 (NCI-H23 lung): > 100 µM
- TGI (NCI-H23 lung): > 100 µM
- GI50 (NCI-H460 lung): > 100 µM
- TGI (NCI-H460 lung): > 100 µM
- GI50 (RXF 393 renal): 82.2 µM
- TGI (RXF 393 renal): > 100 µM
- GI50 (SF-295 CNS): > 100 µM
- TGI (SF-295 CNS): > 100 µM
- GI50 (SNB-75 CNS): > 100 µM
- TGI (SNB-75 CNS): > 100 µM
- GI50 (SR leukemia): 80.1 µM
- TGI (SR leukemia): > 100 µM

SMILES: CC[C@H](Nc1nc(NCc2cnc(C)cc2C)c2ncn(C(C)C)c2n1)[C@@H](C)O
- GI50 (CCRF-CEM leukemia): 0.326 µM
- TGI (CCRF-CEM leukemia): > 100 µM
- GI50 (HCT-116 colon): 0.314 µM
- TGI (HCT-116 colon): > 100 µM
- GI50 (MDA-MB-231 breast): 0.313 µM
- TGI (MDA-MB-231 breast): > 100 µM
- GI50 (NCI-H23 lung): 0.334 µM
- TGI (NCI-H23 lung): 2.15 µM
- GI50 (NCI-H460 lung): 0.327 µM
- TGI (NCI-H460 lung): 15.7 µM
- GI50 (RXF 393 renal): 0.179 µM
- TGI (RXF 393 renal): 0.389 µM
- GI50 (SF-268 CNS): 0.268 µM
- TGI (SF-268 CNS): 2.41 µM
- GI50 (SF-295 CNS): 0.298 µM
- GI50 (SNB-75 CNS): 0.159 µM
- TGI (SNB-75 CNS): 0.407 µM

SMILES: Cc1ccc(-n2c3c(c4c(CN(C)C)c(O)ccc42)CCc2ccccc2C3=O)cc1
- GI50 (HCT-116 colon): 14.4 µM
- TGI (HCT-116 colon): 27.8 µM
- GI50 (MDA-MB-231 breast): 14.9 µM
- TGI (MDA-MB-231 breast): 31 µM
- GI50 (NCI-H23 lung): 14.6 µM
- TGI (NCI-H23 lung): 29.6 µM
- GI50 (NCI-H460 lung): 18.3 µM
- TGI (NCI-H460 lung): 41.9 µM
- GI50 (RXF 393 renal): 13.6 µM
- TGI (RXF 393 renal): 28 µM
- GI50 (SF-268 CNS): 19.8 µM
- TGI (SF-268 CNS): 50.5 µM
- GI50 (SF-295 CNS): 18.3 µM
- TGI (SF-295 CNS): 35.9 µM

SMILES: O=c1ccn(C2OC(CO/N=C/c3ccc(O)c(O)c3O)C(O)C2O)c(=O)[nH]1 (stereo unspecified)
- GI50 (HCT-116 colon): 20.6 µM
- TGI (HCT-116 colon): 58.7 µM
- GI50 (MDA-MB-231 breast): 30 µM
- TGI (MDA-MB-231 breast): > 100 µM
- GI50 (NCI-H23 lung): 22.6 µM
- TGI (NCI-H23 lung): 49.6 µM
- GI50 (NCI-H460 lung): > 100 µM
- TGI (NCI-H460 lung): > 100 µM
- GI50 (RXF 393 renal): 23 µM
- TGI (RXF 393 renal): 73.9 µM
- GI50 (SF-268 CNS): 26.5 µM
- TGI (SF-268 CNS): 85.6 µM
- GI50 (SF-295 CNS): 10.5 µM
- TGI (SF-295 CNS): 24.1 µM
- GI50 (SNB-75 CNS): 16.4 µM
- TGI (SNB-75 CNS): 32.2 µM

SMILES: Clc1ccc2c(c1)C1C(CO2)C(c2ccccc2)=NN1c1ccccc1 (stereo unspecified)
- TGI (CCRF-CEM leukemia): 99.1 µM
- TGI (HCT-116 colon): 62.4 µM
- TGI (NCI-H23 lung): 99.8 µM
- TGI (NCI-H460 lung): > 100 µM
- TGI (RXF 393 renal): > 100 µM
- TGI (SF-268 CNS): > 100 µM
- TGI (SF-295 CNS): > 100 µM
- TGI (SNB-75 CNS): 82.9 µM

SMILES: Fc1ccc2c(c1)c(-c1nc(-c3c[nH]c4ncccc34)cs1)cn2CCCN1CCCCC1
- GI50 (HCT-116 colon): 1.75 µM
- TGI (HCT-116 colon): 3.3 µM
- GI50 (MDA-MB-231 breast): 1.69 µM
- TGI (MDA-MB-231 breast): 3.18 µM
- GI50 (NCI-H23 lung): 1.64 µM
- TGI (NCI-H23 lung): 3.13 µM
- GI50 (SF-268 CNS): 1.64 µM
- TGI (SF-268 CNS): 3.42 µM
- GI50 (SNB-75 CNS): 1.34 µM
- TGI (SNB-75 CNS): 2.98 µM
